One data set has as its target T1, P2X7 receptor (Homo sapiens, UniProt Q99572).
T1 construct: 200 μl of a suspension of THP-1 cells; endogenous in cells; host or cells: THP-1 cells
T1 sequence (Q99572 1-595): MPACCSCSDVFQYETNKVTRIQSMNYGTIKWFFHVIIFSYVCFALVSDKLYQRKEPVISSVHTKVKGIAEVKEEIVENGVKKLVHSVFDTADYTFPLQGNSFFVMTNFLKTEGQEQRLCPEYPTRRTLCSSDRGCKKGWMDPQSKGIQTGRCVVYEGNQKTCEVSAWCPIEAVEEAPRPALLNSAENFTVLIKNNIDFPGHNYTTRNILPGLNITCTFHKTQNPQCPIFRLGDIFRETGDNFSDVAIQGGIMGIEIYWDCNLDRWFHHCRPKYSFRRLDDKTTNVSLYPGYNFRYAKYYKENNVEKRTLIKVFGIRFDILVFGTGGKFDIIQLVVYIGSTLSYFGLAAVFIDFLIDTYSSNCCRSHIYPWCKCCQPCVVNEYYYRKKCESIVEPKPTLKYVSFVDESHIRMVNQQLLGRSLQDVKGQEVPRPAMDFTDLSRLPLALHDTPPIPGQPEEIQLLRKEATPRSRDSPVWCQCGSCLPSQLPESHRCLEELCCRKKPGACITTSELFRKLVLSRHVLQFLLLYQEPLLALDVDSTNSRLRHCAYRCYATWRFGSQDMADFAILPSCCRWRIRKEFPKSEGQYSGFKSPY
The experiment in a line: P2X7 receptor antagonist test: bbATP-induced ethidium bromide fluorescence in THP-1 cells. Format: cell-based. Particulars: bbATP agonist, 37° C. for one hour, read-out: pIC50 (negative logarithm of the concentration of test compound necessary to reduce the bbATP agonist activity by 50%) (converted). The text has this: Certain compounds such as benzoylbenzoyl adenosine triphosphate (bbATP) are known to be agonists of the P2X7 receptor, effecting the formation of pores in the plasma membrane (Drug Development Research (1996), 37(3) p. 126). Consequently, when the receptor is activated using bbATP in the presence of ethidium bromide (a fluorescent DNA probe), an increase in the fluorescence of intracellular DNA-bound ethidium bromide is observed. The increase in fluorescence can be used as a measure of P2X7 receptor activation and therefore to quantify the effect of a compound on the P2X7 receptor.
In this manner, each of the title compounds of the Examples was tested for antagonist activity at the P2X7 receptor. Thus, the test was performed in 96-well flat bottomed microtitre plates, the wells being filled with 250 μl of test solution comprising 200 μl of a suspension of THP-1 cells (2.5×10^6 cells/ml) containing 10^−4M ethidium bromide, 25 μl of a high potassium buffer solution containing 10^−5M bbATP, and 25 μl of the high potassium buffer solution containing 3×10^−5M test compound. The plate was covered with a plastics sheet and incubated at 37° C. for one hour. The plate was then read in a Perkin-Elmer fluorescent plate reader, excitation 520 nm, emission 595 nm, slit widths: Ex 15 nm, Em 20 nm. […]

Where a name gives a salt, the structure may show the parent alone.

The term melting point denotes the temperature of the solid-liquid transition. As to `NCCCc1cc(C(=O)NCC23CC4CC(CC(C4)C2)C3)c(Cl)cn1` (as salt: hydrochloride) [Example 6, N-(1-Adamantylmethyl)-2-(3-aminopropyl)-5-chloroisonicotinamide hydrochloride], the melting point was 150 °C (dec.).

Take `CCNCCCc1cc(C(=O)NCC23CC4CC(CC(C4)C2)C3)c(Cl)cn1` (as salt: hydrochloride) [Example 7, N-(1-Adamantylmethyl)-5-chloro-2-[3-(ethylamino)propyl]isonicotinamide hydrochloride]: the melting point is 206 to 208 °C (dec.).

Turning to `C[C@H](CO)NCCCc1cc(C(=O)NCC23CC4CC(CC(C4)C2)C3)c(Cl)cn1` (as salt: hydrochloride) [Example 9, N-(1-Adamantylmethyl)-5-chloro-2-(3-{[(1R)-2-hydroxy-1-methylethyl]amino}propyl)isonicotinamide, dihydrochloride], the melting point lay within 205 to 208 °C.

The compound `C[C@@H](CO)NCCCc1cc(C(=O)NCC23CC4CC(CC(C4)C2)C3)c(Cl)cn1` (as salt: hydrochloride) [Example 10, N-(1-Adamantylmethyl)-5-chloro-2-(3-{[(1S)-2-hydroxy-1-methylethyl]amino}propyl)isonicotinamide, dihydrochloride] displayed a melting point of 205 to 208 °C.

As for `O=C(NCC12CC3CC(CC(C3)C1)C2)c1cc(CCCNCCO)ncc1Cl` (as salt: hydrochloride) [Example 11, N-(1-Adamantylmethyl)5-chloro-2-{3-[(2-hydroxyethyl)amino]propyl}-isonicotinamide hydrochloride], the melting point is 204 to 205 °C (dec.).

The compound `O=C(NCC12CC3CC(CC(C3)C1)C2)c1cc(CCCNC[C@@H](O)CO)ncc1Cl` (as salt: hydrochloride) [Example 16, N-(1-Adamantylmethyl)-5-chloro-2-(3-{[(2R)-2,3-dihydroxypropyl]amino}propyl)isonicotinamide, dihydrochloride] displayed a melting point of 217 to 219 °C.

`CC(C)(O)CNCCCc1cc(C(=O)NCC23CC4CC(CC(C4)C2)C3)c(Cl)cn1` (as salt: hydrochloride) [Example 19, N-(1-Adamantylmethyl)-5-chloro-2-{3-[(2-hydroxy-2-methylpropyl)amino]propyl}isonicotinamide dihydrochloride] came in with a melting point of 236 to 238 °C.

As to `CNCCNCCCc1cc(C(=O)NCC23CC4CC(CC(C4)C2)C3)c(Cl)cn1` (as salt: hydrochloride) [Example 21, N-(1-Adamantylmethyl)-5-chloro-2-(3-{[2-(methylamino)ethyl]amino}propyl)isonicotinamide dihydrochloride], the melting point was 216 to 219 °C.

`O=C(NCC12CC3CC(CC(C3)C1)C2)c1cc(CCCNCCNCCO)ncc1Cl` (as salt: hydrochloride) [Example 23, N-(1-Adamantylmethyl)-5-chloro-2-[3-({2-[(2-hydroxyethyl)amino]ethyl}amino)propyl]isonicotinamide dihydrochloride] had a melting point of 231 to 233 °C.

Turning to `O=C(NCC12CC3CC(CC(C3)C1)C2)c1cc(CCCNC(CO)CO)ncc1Cl` (as salt: hydrochloride) [Example 25, N-(1-Adamantylmethyl)-5-chloro-2-(3-{[2-hydroxy-1-(hydroxymethyl)ethyl]amino}propyl)isonicotinamide dihydrochloride], the melting point is 201 to 203 °C.

`CN(CCO)CCCc1cc(C(=O)NCC23CC4CC(CC(C4)C2)C3)c(Cl)cn1` (as salt: hydrochloride) [Example 26, N-(1-Adamantylmethyl)-5chloro-2-{3-[(2-hydroxyethyl)(methyl)amino]propyl}isonicotinamide dihydrochloride]: the melting point is 206 to 208 °C.

Regarding `C[C@@H](O)CNCCCc1cc(C(=O)NCC23CC4CC(CC(C4)C2)C3)c(Cl)cn1` (as salt: hydrochloride) [Example 28, N-(1-Adamantylmethyl)-5-chloro-2-(3-{[(2R)-2-hydroxypropyl]amino}propyl)isonicotinamide, dihydrochloride], the melting point is 224 to 226 °C.

Compound `CNCCCNCc1cc(C(=O)NCC23CC4CC(CC(C4)C2)C3)c(Cl)cn1` (as salt: hydrochloride) [Example 29, N-(1-Adamantylmethyl)-5chloro-2-({[3-(methylamino)propyl]amino}methyl)isonicotinamide dihydrochloride] displayed a melting point of 285 to 287 °C.

In turn, `O=C(NCC12CC3CC(CC(C3)C1)C2)c1cc(CNCCNCCO)ncc1Cl` (as salt: hydrochloride) [Example 30, N-(1-Adamantylmethyl)-5-chloro-2-[({2-[(2-hydroxyethyl)amino]ethyl}amino)methyl]isonicotinamide dihydrochloride] showed a melting point of 289 to 292 °C.

Compound `CNCCNCc1cc(C(=O)NCC23CC4CC(CC(C4)C2)C3)c(Cl)cn1` (as salt: hydrochloride) [Example 31, N-(1-Adamantylmethyl)-5-chloro-2-({[2-(methylamino)ethyl]amino}methyl)isonicotinamide dihydrochloride] came in with a melting point of 259 to 262 °C.

In turn, `O=C(NCC12CC3CC(CC(C3)C1)C2)c1cc(CCNCCO)ncc1Cl` (as salt: hydrochloride) [Example 32, N-(1-Adamantylmethyl)-5-chloro-2-{3-[(2-hydroxyethyl)amino]ethyl}isonicotinamide dihydrochloride] came in with a melting point of 242 to 244 °C.

Turning to `O=C(NCC12CC3CC(CC(C3)C1)C2)c1cc(CCNCCCO)ncc1Cl` (as salt: hydrochloride) [Example 33, N-(1-Adamantylmethyl)-5-chloro-2-{3-[(3-hydroxypropyl)amino]ethyl}isonicotinamide dihydrochloride], the melting point lay in the range of 240 to 242 °C.

For the compound `CNCCCc1cc(C(=O)NCC23CC4CC(CC(C4)C2)C3)c(Cl)cn1` (as salt: hydrochloride) [Example 34, N-(1-Adamantylmethyl)-5-chloro2-[3-(methylamino)propyl]isonicotinamide hydrochloride], the melting point lay within 210 to 212 °C.

The compound `CNCCCNCCCc1cc(C(=O)NCC23CC4CC(CC(C4)C2)C3)c(Cl)cn1` (as salt: trifluoroacetate) [Example 22, N-(1-Adamantylmethyl)-5-chloro-2-(3-{[3-(methylamino)propyl]amino}propyl)isonicotinamide bis(trifluoroacetate)] gave a melting point of 210 to 212 °C.

`O=C(NCC12CC3CC(CC(C3)C1)C2)c1cc(CCCNCCCO)ncc1Cl` [Example 1, N-(1-Adamantylmethyl)-5-chloro-2-{3-[(3-hydroxypropyl)-amino]propyl}isonicotinamide] displayed a melting point of 84 to 85 °C.

`O=C(NCC12CC3CC(CC(C3)C1)C2)c1cc(CCCNCCCO)cnc1Cl` [Example 3, N-(1-Adamantylmethyl)-2-chloro-5-{3-[(3-hydroxypropyl)amino]propyl}nicotinamide] showed a melting point of 105 to 107 °C.

Take `O=C(NCC12CC3CC(CC(C3)C1)C2)c1cc(OCCNCCCO)ncc1Cl` [Example 12, N-(1-Adamantylmethyl)-5-chloro-2-{2-[(3-hydroxypropyl)amino]ethoxy}isonicotinamide, hydrochloride]: at P2X7 receptor, the IC50 was 79.4 nM.

Take `CN(CCO)CCCc1cc(C(=O)NCC23CC4CC(CC(C4)C2)C3)c(Cl)cn1` [Example 26, N-(1-Adamantylmethyl)-5chloro-2-{3-[(2-hydroxyethyl)(methyl)amino]propyl}isonicotinamide dihydrochloride]: at P2X7 receptor, the IC50 was 15.8 nM.

The record behind these values is US7129246B2, “N-adamantlmethyl derivatives and intermediates as pharmaceutical compositions and processes for their preparation” (AstraZeneca AB, priority 2001, dated 2006).
